The record followed here is PubChem BioAssay (NCI).

Among the test systems are SNB-75 CNS; A498 renal; OVCAR-4 ovarian; NCI-H226 lung; SF-268 CNS; SK-MEL-28 melanoma; A549 NSCLC; RPMI-8226 leukemia; OVCAR-3 ovarian; KM12 colon; NCI-H23 lung; HL-60(TB) leukemia; HCC-2998 colon; CCRF-CEM leukemia; UO-31 renal; SK-MEL-2 melanoma; UACC-257 melanoma; HOP-92 NSCLC; SR leukemia; TK-10 renal.
Holding throughout (assay): inhibition of tumour cell growth, NCI panel, 48 h

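Step 1: Grow cells in 96-well plates. Step 2: Expose to compound for 48 hours at 5 concentrations. Step 3: Interpolate endpoints linearly; if unreached, use highest concentration. TGI: concentration producing complete growth inhibition.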 Where only a bound is given, the exact number is not on record here.

Turning to `NCCCCCC(CCN)SCC1OC(n2cnc3c(N)ncnc32)C(O)C1O` (stereo not given), the TGI with SNB-75 CNS, in the assay on A498 renal, with OVCAR-4 ovarian, in the assay on NCI-H226 lung, in the assay on SF-268 CNS and in the assay with SK-MEL-28 melanoma was more than 1500 µM throughout. Besides, the TGI was more than 1500 µM in the assay on A549 NSCLC; 1140 µM in the assay on RPMI-8226 leukemia; more than 1500 µM with OVCAR-3 ovarian; more than 1500 µM in the assay with KM12 colon; more than 1500 µM with NCI-H23 lung; more than 1500 µM in the assay with HL-60(TB) leukemia. In addition, the TGI with HCC-2998 colon is more than 1500 µM; with CCRF-CEM leukemia, more than 1500 µM; in the assay with UO-31 renal, more than 1320 µM; in the assay on SK-MEL-2 melanoma, more than 1500 µM; in the assay on UACC-257 melanoma it was more than 1500 µM; with HOP-92 NSCLC, more than 1240 µM.
Take `COC(=O)/C=C1\SC2(OC1=Nc1ccccc1)C1CC3CC(C1)CC2C3` (stereo not given): the TGI with SR leukemia, in the assay on SNB-75 CNS, in the assay on A498 renal, in the assay on OVCAR-4 ovarian, in the assay with NCI-H226 lung and with SK-MEL-28 melanoma was more than 100 µM throughout. In addition, the TGI in the assay on A549 NSCLC, with RPMI-8226 leukemia, in the assay with OVCAR-3 ovarian, in the assay with KM12 colon, with TK-10 renal and with HL-60(TB) leukemia was more than 100 µM each time. Moreover, the TGI with CCRF-CEM leukemia, in the assay on UO-31 renal, in the assay with SK-MEL-2 melanoma, in the assay with UACC-257 melanoma and in the assay on HOP-92 NSCLC was more than 100 µM each time.
In the case of `O=C(O)C(Cc1cc(I)c(O)c(I)c1)C1CCCCC1` (stereo not given), the TGI with SR leukemia is more than 100 µM; in the assay with SNB-75 CNS, more than 100 µM; in the assay with A498 renal it was 63.7 µM; with OVCAR-4 ovarian it was more than 100 µM; in the assay with NCI-H226 lung it was more than 100 µM; in the assay with SF-268 CNS, more than 100 µM. Besides, the TGI with SK-MEL-28 melanoma was more than 100 µM; in the assay on A549 NSCLC, more than 100 µM; in the assay on OVCAR-3 ovarian it was 38.5 µM; in the assay on KM12 colon it was more than 100 µM; in the assay on NCI-H23 lung it was 65.5 µM; with TK-10 renal it was 88.7 µM. For the same compound, the TGI in the assay on HCC-2998 colon was 76.9 µM; in the assay with CCRF-CEM leukemia, more than 100 µM; in the assay on UO-31 renal, more than 100 µM; in the assay with UACC-257 melanoma, more than 100 µM; with HOP-92 NSCLC, more than 100 µM.
On to `CCOc1ccc(/C=C2\N=C(c3ccccc3)OC2=O)cc1`, for which the TGI in the assay on SR leukemia, with SNB-75 CNS, in the assay on OVCAR-4 ovarian, in the assay on NCI-H226 lung, in the assay with SF-268 CNS and in the assay with SK-MEL-28 melanoma was more than 100 µM throughout. The TGI in the assay with A549 NSCLC, in the assay with RPMI-8226 leukemia, in the assay on OVCAR-3 ovarian, with KM12 colon, in the assay with NCI-H23 lung and in the assay with TK-10 renal was more than 100 µM in each case. Further, the TGI in the assay on HL-60(TB) leukemia, with HCC-2998 colon, in the assay with CCRF-CEM leukemia, in the assay on UO-31 renal, with SK-MEL-2 melanoma and with UACC-257 melanoma was more than 100 µM throughout. In the assay on HOP-92 NSCLC, the TGI was more than 100 µM.
For `O=C1c2cc(Br)ccc2-c2ccc3c4ccc5c6c(ccc(c7ccc1c2c73)c64)C(=O)c1cc(Br)ccc1-5`, the TGI in the assay with SR leukemia, in the assay with A498 renal, in the assay with NCI-H226 lung, in the assay on SF-268 CNS, in the assay with SK-MEL-28 melanoma and in the assay on A549 NSCLC was more than 100 µM throughout. Moreover, the TGI with RPMI-8226 leukemia, in the assay on OVCAR-3 ovarian, in the assay on KM12 colon, in the assay on NCI-H23 lung, in the assay on TK-10 renal and in the assay with HL-60(TB) leukemia was more than 100 µM each time. In addition, the TGI in the assay with HCC-2998 colon, in the assay on CCRF-CEM leukemia, in the assay with UO-31 renal, with SK-MEL-2 melanoma, in the assay with UACC-257 melanoma and in the assay on HOP-92 NSCLC was more than 100 µM each time.
With `CN1C2CCC1/C(=C/c1cccc3c1OCO3)C(=O)/C2=C\c1cccc2c1OCO2`, the TGI is more than 100 µM in the assay on SR leukemia; 49.7 µM in the assay on SNB-75 CNS; more than 100 µM in the assay with NCI-H226 lung; more than 100 µM in the assay with SF-268 CNS; more than 100 µM in the assay on SK-MEL-28 melanoma; more than 100 µM with RPMI-8226 leukemia. In addition, the TGI in the assay with OVCAR-3 ovarian was more than 100 µM; with KM12 colon, more than 100 µM; in the assay with NCI-H23 lung it was more than 100 µM; in the assay with TK-10 renal, 56.2 µM; in the assay with HL-60(TB) leukemia it was more than 100 µM; with HCC-2998 colon it was more than 100 µM. Further, the TGI is more than 100 µM in the assay with CCRF-CEM leukemia; more than 100 µM in the assay with UO-31 renal; more than 100 µM with SK-MEL-2 melanoma; more than 100 µM in the assay with UACC-257 melanoma; 98.7 µM in the assay with HOP-92 NSCLC.
On to `CC(=O)CCC#Cc1ccccc1C(=O)C(C)=[N+]=[N-]`, for which the TGI in the assay on SNB-75 CNS is 69.2 µM; in the assay on A498 renal it was more than 100 µM; in the assay with OVCAR-4 ovarian, more than 100 µM; in the assay on NCI-H226 lung, more than 100 µM; in the assay on SF-268 CNS, more than 100 µM; with SK-MEL-28 melanoma, more than 100 µM. The TGI was more than 100 µM in the assay on A549 NSCLC; 68.3 µM in the assay on RPMI-8226 leukemia; more than 100 µM in the assay with OVCAR-3 ovarian; more than 100 µM in the assay with KM12 colon; more than 100 µM with NCI-H23 lung; more than 100 µM in the assay with TK-10 renal. The TGI with HL-60(TB) leukemia, in the assay with HCC-2998 colon, with CCRF-CEM leukemia, with UO-31 renal, in the assay with SK-MEL-2 melanoma and with UACC-257 melanoma was more than 100 µM throughout. The compound further displayed a TGI in the assay on HOP-92 NSCLC of more than 100 µM.
For the compound `CC(C)(C)[Si](C)(C)OCC1OC(n2cnc3c(N)ncnc32)C2OC(=S)OC12` (stereo not given), the TGI with SR leukemia, in the assay with SNB-75 CNS, in the assay on A498 renal, in the assay with OVCAR-4 ovarian, in the assay on NCI-H226 lung and with SK-MEL-28 melanoma was more than 100 µM throughout. In addition, the TGI in the assay with RPMI-8226 leukemia is more than 100 µM; in the assay with OVCAR-3 ovarian it was 91.9 µM; with KM12 colon, more than 100 µM; in the assay with NCI-H23 lung, 73.3 µM; in the assay on TK-10 renal, more than 100 µM; in the assay with HL-60(TB) leukemia, more than 100 µM. For the same compound, the TGI in the assay with CCRF-CEM leukemia was 59 µM; with UO-31 renal, 78.3 µM; with SK-MEL-2 melanoma, 74.7 µM; in the assay on UACC-257 melanoma, more than 100 µM; in the assay with HOP-92 NSCLC, more than 100 µM.
With `COc1ccc(-c2cc(N3CCN(c4ccc(Cl)cc4)CC3)c(C#N)c(=O)o2)cc1`, the TGI with SR leukemia is more than 100 µM; in the assay with SNB-75 CNS, 10.8 µM; with A498 renal it was 49.4 µM; with OVCAR-4 ovarian it was 5.07 µM; in the assay on NCI-H226 lung, 7.57 µM; in the assay on SF-268 CNS, 33.5 µM. Also, the TGI is 23.3 µM in the assay with SK-MEL-28 melanoma; 32.3 µM with A549 NSCLC; 87.9 µM with RPMI-8226 leukemia; more than 100 µM with KM12 colon; 88.1 µM in the assay with NCI-H23 lung; 37.7 µM with TK-10 renal. In addition, the TGI is more than 100 µM in the assay on HL-60(TB) leukemia; more than 100 µM in the assay on HCC-2998 colon; 30.5 µM with UO-31 renal; 45.3 µM in the assay with SK-MEL-2 melanoma; 73.1 µM in the assay on UACC-257 melanoma; more than 100 µM in the assay with HOP-92 NSCLC.
